We go through one compound from US11236120B2, “Azithromycin derivatives with epithelial barrier enhancement properties” (EpiEndo Pharmaceuticals ehf, priority 2015, dated 2022).

Molecules are shown by their SMILES. Converted amounts (≈) assume the structure as drawn. “Also recorded” adds a separate entry of the source.

The test system of one test is patients with COPD. As to conditions: double blinded clinical trials; cited from earlier work.
The test system of test [1] is Staphylococcus aureus (ATCC29213). Put plainly: Assay 1: antimicrobial broth dilution on microtiter plates, Staphylococcus aureus. It counts as cell-based. As to conditions: S. aureus (ATCC29213). Here is the method:
(§1) The antimicrobial activity of each Example compound was investigated. The Minimal Inhibitory Concentration (MIC—the minimal dose required to inhibit bacterial growth) and the Minimal Bactericidal Concentration (MBC—the minimal dose required to kill bacteria) were measured for each compound for Streptococcus pneumoniae (ATCC49619), Staphylococcus aureus (ATCC29213), Bacillus megaterium (BM-11) and Escherichia coli (D-21) using an antimicrobial broth dilution method on microtiter plates. The Minimal Inhibitory Concentration (MIC) was also measured for each example compound and azithromycin with Mycobacterium avium complex (MAC). […]
(§2) The Minimal Inhibitory Concentration (MIC—the minimal dose required to inhibit bacterial growth) and the Minimal Bactericidal Concentration (MBC—the minimal dose required to kill bacteria) were measured for each compound for Streptococcus pneumoniae (ATCC49619), Staphylococcus aureus (ATCC29213), Bacillus megaterium (BM-11) and Escherichia coli (D-21) using an antimicrobial broth dilution method on 96 well microtiter plates. […]
(§3) After addition of the bacterial solution, the plates were incubated at 35° C. for 18 h. The bacterial growth of each well was then recorded and then the Minimal Inhibitory Concentration (MIC) and Minimal Bactericidal Concentration ([…]) were determined.

For another test, the system named is Escherichia coli (D-21). Put plainly: Assay 1: antimicrobial broth dilution on microtiter plates, Escherichia coli. The class given is cell-based. As to conditions: E. coli (D-21). Here is the method:
The antimicrobial activity of each Example compound was investigated. The Minimal Inhibitory Concentration (MIC—the minimal dose required to inhibit bacterial growth) and the Minimal Bactericidal Concentration (MBC—the minimal dose required to kill bacteria) were measured for each compound for Streptococcus pneumoniae (ATCC49619), Staphylococcus aureus (ATCC29213), Bacillus megaterium (BM-11) and Escherichia coli (D-21) using an antimicrobial broth dilution method on microtiter plates. The Minimal Inhibitory Concentration (MIC) was also measured for each example compound and azithromycin with Mycobacterium avium complex (MAC). Mycobacterium avium complex (MAC) is a term that covers both M. avium and M. intracellulare.
The antibacterial activities of example compounds 1 to 31 and azithromycin were investigated. The Minimal Inhibitory Concentration (MIC—the minimal dose required to inhibit bacterial growth) and the Minimal Bactericidal Concentration (MBC—the minimal dose required to kill bacteria) were measured for each compound for Streptococcus pneumoniae (ATCC49619), Staphylococcus aureus (ATCC29213), Bacillus megaterium (BM-11) and Escherichia coli (D-21) using an antimicrobial broth dilution method on 96 well microtiter plates.
A 256 μg/ml stock solution of each compound was prepared in Mueller-Hinton Broth and then further diluted by a 2-fold serial dilution. […]

In test [2] the test system is Streptococcus pneumoniae (ATCC49619). Put plainly: Assay 1: antimicrobial broth dilution on microtiter plates, Streptococcus pneumoniae. It counts as cell-based. To be noted: Str. Here is the method:
as §1, §2, §3
(In broth dilution the organism is exposed to a series of concentrations in liquid medium.)

Test [3] concerns epithelial cells in vitro ALI culture. As to conditions: cited from earlier work.
In test [4] the test system is barrier integrity in the lungs of mice under sulphur dioxide insult. Put plainly: Barrier integrity enhancement in the lung: HSA leakage into BAL after sulphur dioxide insult. It counts as in vivo. Here is the method:
The effect of compounds of the invention on maintenance of barrier integrity in the lungs of mice under sulphur dioxide insult was investigated.
1. 15 female mice were randomised into 3 groups of 5 mice. The three groups were: • a) Control group • b) Azithromycin treatment group • c) Investigational compound treatment group
2. The mice were pre-treated for three days with: • a) Placebo (Phosphate buffered saline—PBS) given at a dose of 10 mg/kg in an intravenous injection of 100 μl three times per week. • b) Azithromycin: given at a dose of 10 mg/kg in an intravenous injection of 100 μl three times per week. • c) The compound of Example 2: given at a dose of 10 mg/kg in an intravenous injection of 100 μl three times per week.
3. One mouse in each group was set to one side as a control. Four mice were then exposed to sulphur dioxide gas at a concentration of 200 ppm in air for a period of 60 minutes. The mice were in a cage that was inserted into a 45 L treatment box with a removable lid, a gas feed line and a gas exhaust vent. […] The gas was premixed from bottled air and bottled 200 ppm SO2 in a first box and then fed into the treatment box. The level of SO2 being fed into the treatment box can be varied by adjusting the relative flow of air and SO2 from the two source cylinders. As the sulphur dioxide concentration in this experiment was 200 ppm, it was used neat, with no additional air being mixed with it. The mice had access to food and water for the duration of the treatment.
4. 24 hours after the end of the treatment, 1 mg of human serum albumin (HSA) in 100 μl saline was injected into the tail vein of each mouse, and fluorescent dextrans (FDs) were injected into the airways. The mice were then kept sedated for 90 minutes.
5. After 90 minutes, the mice were sacrificed via exsanguination. Plasma and bronchoalveolar lavage (BAL) were collected and the lungs were processed for paraffin embedding.
6. The level of HSA in the BAL was quantified by ELISA. The ELISA test used was the one commercially available from abcam (Human Serum Albumin kit ab179887). In line with the kit manufacturer's instructions, absorbance at […] was measured. Fluorescent dextrans are quantified using a fluorescent plate reader.
The level of HSA that leaks into the lungs, as found in the BAL, is a measure of the integrity of the lung epithelial barrier.
In the placebo group, there were experimental difficulties with two of the four mice; in the Azithromycin group, there were experimental difficulties with one of the four mice; and in the investigational compound group, there were experimental difficulties with two of the four mice. Therefore, results were obtained from two mice in each of the placebo and investigational compound groups, and from three mice in the Azithromycin group.

One may read the MBC as the lowest tested concentration that kills the bacteria rather than only halting them. Higher therefore signals less potent killing. In general, MIC refers to the least concentration at which growth counts as inhibited. Read a high MIC as a need for much substance. With `CC[C@H]1OC(=O)[C@H](C)[C@@H](O[C@H]2C[C@@](C)(OC)[C@@H](O)[C@H](C)O2)[C@H](C)[C@@H](O[C@@H]2O[C@H](C)C[C@H](N(C)C)[C@H]2O)[C@](C)(O)C[C@@H](C)CN(C)[C@H](C)[C@@H](O)[C@]1(C)O` [Azithromycin, (2R,3S,4R,5R,8R,10R,11R,12S,13S,14R)-11-[(2S,3R,4S,6R)-4-(dimethylamino)-3-hydroxy-6-methyl-tetrahydropyran-2-yl]oxy-2-ethyl-3,4,10-trihydroxy-13-[(2R,4R,5S,6S)-5-hydroxy-4-methoxy-4,6-dimethyl-tetrahydropyran-2-yl]oxy-3,5,6,8,10,12,14-heptamethyl-1-oxa-6-azacyclopentadecan-15-one], the “reduction of the hospitalisation rate and disease related exacerbations” value in the test with patients with COPD was 30%. The MBC in test [1] is 8 µg/mL (≈ 10.7 µM); against Escherichia coli (D-21), 32 µg/mL (≈ 42.7 µM); in test [2], 0.06 µg/mL (≈ 0.0801 µM). In addition, the values for the MIC (in test [1]; in the test with Escherichia coli (D-21); in test [2]) were 2 µg/mL (≈ 2.67 µM), 4 µg/mL (≈ 5.34 µM) and 0.06 µg/mL (≈ 0.0801 µM), respectively. The “effect on transepithelial resistance (TER) and cellular processing of tight junctions” value in test [3] was “increasing transepithelial resistance”. For the same compound, the “HSA level - absorbance at 600 nm” value in test [4] (HSA in BAL by ELISA, mice, 10 mg/kg intravenous, 200 ppm SO2 for 60 minutes) came to 0.346 ± 0.031. In addition, the “leakage of HSA into the lung following SO2 insult” value in test [4] (compared with control, FIG. 1) is “reduced compared with the control; also recorded: reduced compared with a control”. Further, the “HSA level - absorbance at 600 nm relative to control” value in test [4] (relative to PBS control, mice, 10 mg/kg intravenous, 200 ppm SO2 for 60 minutes) is 0.593 ± 0.053.
